{"source": "patent US20210268009A1", "about": "“Composition For Preventing Hair Loss Or Promoting Hair Regrowth” (LG Household & Health Care Ltd., priority 2018, published 2021)", "key": {"[1]": {"system": "DKK-1", "test": "Real-time PCR gene expression in dermal papilla cells: DKK-1", "format": "cell-based, human", "settings": "for Expression of Genes (%): DKK-1: non-treated group = 100; for expression of DKK-1, result in words: summary of Table 10", "excerpt": "(§1) In general, it is known that VEGF, IGF-1, FGF, or the like, secreted in dermal papilla cells induce an anagen stage of hair. In addition, versican is known as a marker of an anagen stage of hair and DKK-1 is known as a marker of a catagen stage of hair. Therefore, effects of rhaponticin, rhein, chrysophanol and physicon-O-d-glucopyranoside upon the signals of accelerating an anagen stage and those of inducing a catagen stage in dermal papilla cells were examined according to the present disclosure. In a 6-well culture plate, dermal papilla cells were seeded to each well at 1×10^5 and treated with 10 μg/mL of each of the samples of rhaponticin, rhein, chrysophanol, physicon-O-d-glucopyranoside and combinations thereof as shown in the following Table 10. Then, real-time PCR was used to determine expression of each of VEGF, versican and DKK-1 by using Taqman® probe (Thermo Fisher, Massachusetts, USA) as shown in the following Table 9. [table]"}, "[2]": {"system": "VEGF", "test": "Real-time PCR gene expression in dermal papilla cells: VEGF", "format": "cell-based, human", "settings": "for Expression of Genes (%): VEGF: non-treated group = 100; for expression of VEGF, result in words: summary of Table 10", "excerpt": "as §1"}, "[3]": {"system": "Human-derived dermal papilla cells (DPCs)", "test": "Dermal papilla cell proliferation, CCK-8 (Experimental Example 6)", "format": "cell-based", "settings": "for Dermal Papilla Cell Proliferation Ability (%): one day, control = 100; for proliferation of dermal papilla cells, result in words: summary of Table 8", "method": "Human-derived dermal papilla cells (DPCs) were purchased from PromoCell GmbH. The DPCs were cultured in a DMEM medium (Hyclone Inc., Utah, USA) containing 5% of fetal bovine serum (FBS; Gibco, NY, USA), 10 units/mL of penicillin and 100 μg/mL of streptomycin at 37° C. under 5% of CO2. The cultured DPCs were pipetted to a 96-well plate at 3,000 cells/well and cultured under the condition of 0.1% of serum for 24 hours. Then, the cultured cells were treated with 10 μg/mL of each of the samples of rhaponticin, rhein, chrysophanol, physicon-8-O-glucopyranoside and combinations thereof as shown in the following Table 8 for one day and then incubated, and DMSO (vehicle) diluted to 1:1000 in serum-free DMEM was used as a control and 2 μg/mL of minoxidil was used as a positive control . After incubation, a cell counting kit (CCK) was used to evaluate proliferation of cells. The culture medium was treated with CCK-8 at a ratio of 1:10, followed by incubation for 1 hour. After 1 hour, the absorbance of each well was determined at 450 nm. All tests were repeated three times and the average of absorbance value was calculated. The results are shown by the percentage of a test group as the result of the control is taken as 100."}, "[4]": {"system": "Versican", "test": "Real-time PCR gene expression in dermal papilla cells: versican", "format": "cell-based, human", "settings": "for Expression of Genes (%): Versican: non-treated group = 100; for expression of versican, result in words: summary of Table 10", "excerpt": "as §1"}, "[5]": {"system": "β-catenin", "test": "Expression of β-catenin in dermal papilla cells (SDS-PAGE / anti-β-catenin antibody)", "format": "cell-based, human", "settings": "escin 0.2-5 μg/mL, 1 day; GAPDH control; FIG. 2", "excerpt": "In dermal papilla cells in a catagen stage and a telogen stage, during which Wnt signals are inhibited, β-catenin is decomposed by GSK3-beta. However, in dermal papilla cells in an anagen stage, during which Wnt signals are amplified, activity of GSK3-beta is inhibited and β-catenin is not decomposed, resulting in an increase in expression of β-catenin. Human dermal papilla cells were pipetted to six well plates at about 500,000 cells/well, and treated with escin for 1 day at a concentration of 0.2, 0.5, 1.2 and 5 μg/mL, followed by incubation. After incubation, M-PER lysis buffer was used to cause lysis of the cells and the same amount of cell lysate was loaded on SDS-PAGE gel. The cell lysate loaded on SDS-PAGE gel was transferred to a nitrocellulose membrane and anti-β-catenin antibody was attached to the nitrocellulose membrane to detect protein. GAPDH was used as a control for correcting protein content. The amount of β-catenin increased by escin was determined."}, "[6]": {"system": "Wnt/β-catenin promoter activity (Wnt reporter HEK293SA cells)", "test": "Wnt/β-catenin promoter luciferase reporter analysis", "format": "cell-based", "settings": "escin 5, 10 and 20 μg/mL, FIG. 1", "method": "In general, Wnt/β-catenin signals activated in dermal papilla cells are generated while a transition from a […] to an anagen stage occurs in the hair growth cycle, i.e. during a period from beginning of hair growth to an activation stage of hair growth. In addition, in a telogen stage and catagen stage, Wnt/β-catenin signals become weak or disappear to cause degradation of hair follicles and depilation. In this Experimental Example, it is determined how escin contributes to amplification of Wnt/β-catenin signals.\nAs a positive control which amplifies Wnt/β-catenin signals, wnt3a protein was used. In addition, dimethyl sulfoxide (DMSO) was used as a negative control. In a 96-well culture plate, approximately 3×10^4 of Wnt reporter HEK293SA cells were seeded to each well and treatment with escin was carried out at a concentration of 5 μg/mL, 10 μg/mL and 20 μg/mL. Then, a luciferase assay kit (E1960) available from Promega Corp. was used to carry out reporter analysis according to the test method provided by the company. In addition, luminometer Victor (Perkin Elmer, Waltham, Mass., USA) was used to determine Wnt/β-catenin promoter activity."}, "[7]": {"system": "Human-derived dermal papilla cells (DPCs)", "test": "Dermal papilla cell proliferation, CCK-8 (Experimental Example 2, escin)", "format": "cell-based", "settings": "one day; for Dermal Papilla Cell Proliferation Ability (%): control = 100", "method": "Human-derived dermal papilla cells (DPCs) were purchased from PromoCell GmbH. DPCs were cultured under the conditions of 37° C. and 5% CO2 by using a follicle dermal papilla cell growth medium and supplement mix recommended by PromoCell GmbH. The cultured DPCs were pipetted to a 96-well plate at 3,000 cells/well and cultured for 24 hours in the presence of 0.1% of blood serum. Then, the cultured cells were treated with escin at a concentration of 0.2, 0.5, 1.2 and 5 μg/mL for one day and then incubated, and DMSO (vehicle) diluted to 1:1000 in serum-free DMEM was used as a control. After incubation, a cell counting kit (CCK) was used to evaluate proliferation of cells. The culture medium was treated with CCK-8 at a ratio of 1:10, followed by incubation for 1 hour. After 1 hour, the absorbance of each well was determined at 450 nm. All tests were repeated three times and the average of absorbance value was calculated. The results are shown by the percentage of a test group with the result of the control taken as 100."}}}
{"compound": "Cc1cc(O)c2c(c1)C(=O)c1cccc(O)c1C2=O", "note": "[Chrysophanol]", "values": [{"measurement": "Expression of Genes (%): DKK-1", "setting": "[1]; 10 μg/mL", "value": 123, "unit": "%"}, {"measurement": "expression of DKK-1, result in words", "setting": "[1]", "value": "reduce expression of DKK-1"}, {"measurement": "Expression of Genes (%): VEGF", "setting": "[2]; 10 μg/mL", "value": 250, "unit": "%"}, {"measurement": "expression of VEGF, result in words", "setting": "[2]", "value": "increase expression of VEGF"}, {"measurement": "Dermal Papilla Cell Proliferation Ability (%)", "setting": "[3]; 10 μg/mL", "value": 152.0, "unit": "%"}, {"measurement": "proliferation of dermal papilla cells, result in words", "setting": "[3]", "value": "excellent effect of accelerating proliferation of dermal papilla cells"}, {"measurement": "Expression of Genes (%): Versican", "setting": "[4]; 10 μg/mL", "value": 158, "unit": "%"}, {"measurement": "expression of versican, result in words", "setting": "[4]", "value": "increase expression"}]}
{"compound": "Nc1cc(N2CCCCC2)nc(N)[n+]1[O-]", "note": "[Minoxidil, 2,4-diamino-6-piperidinopyrimidine-3-oxide, reference compound]", "values": [{"measurement": "Expression of Genes (%): DKK-1", "setting": "[1]; 2 μg/mL", "value": 128, "unit": "%"}, {"measurement": "Expression of Genes (%): VEGF", "setting": "[2]; 2 μg/mL", "value": 110, "unit": "%"}, {"measurement": "Dermal Papilla Cell Proliferation Ability (%)", "setting": "[3]; 2 μg/mL", "value": 187.2, "unit": "%"}, {"measurement": "Expression of Genes (%): Versican", "setting": "[4]; 2 μg/mL", "value": 134, "unit": "%"}]}
{"compound": "COc1cc(OC2OC(CO)C(O)C(O)C2O)c2c(c1)C(=O)c1cc(C)cc(O)c1C2=O", "note": "(stereo not drawn) [Physicon-8-O-d-glucopyranoside]", "values": [{"measurement": "Expression of Genes (%): DKK-1", "setting": "[1]; 10 μg/mL", "value": 75, "unit": "%"}, {"measurement": "expression of DKK-1, result in words", "setting": "[1]", "value": "reduce expression of DKK-1"}, {"measurement": "Expression of Genes (%): VEGF", "setting": "[2]; 10 μg/mL", "value": 164, "unit": "%"}, {"measurement": "expression of VEGF, result in words", "setting": "[2]", "value": "increase expression of VEGF"}, {"measurement": "Dermal Papilla Cell Proliferation Ability (%)", "setting": "[3]; 10 μg/mL", "value": 148.3, "unit": "%"}, {"measurement": "proliferation of dermal papilla cells, result in words", "setting": "[3]", "value": "excellent effect of accelerating proliferation of dermal papilla cells"}, {"measurement": "Expression of Genes (%): Versican", "setting": "[4]; 10 μg/mL", "value": 175, "unit": "%"}, {"measurement": "expression of versican, result in words", "setting": "[4]", "value": "increase expression"}]}
{"compound": "COc1ccc(/C=C/c2cc(O)cc(O[C@@H]3O[C@H](CO)[C@@H](O)[C@H](O)[C@H]3O)c2)cc1O", "note": "[Rhaponticin]", "values": [{"measurement": "Expression of Genes (%): DKK-1", "setting": "[1]; 10 μg/mL", "value": 112, "unit": "%"}, {"measurement": "expression of DKK-1, result in words", "setting": "[1]", "value": "reduce expression of DKK-1"}, {"measurement": "Expression of Genes (%): VEGF", "setting": "[2]; 10 μg/mL", "value": 210, "unit": "%"}, {"measurement": "expression of VEGF, result in words", "setting": "[2]", "value": "increase expression of VEGF"}, {"measurement": "Dermal Papilla Cell Proliferation Ability (%)", "setting": "[3]; 10 μg/mL", "value": 162.7, "unit": "%"}, {"measurement": "proliferation of dermal papilla cells, result in words", "setting": "[3]", "value": "excellent effect of accelerating proliferation of dermal papilla cells"}, {"measurement": "Expression of Genes (%): Versican", "setting": "[4]; 10 μg/mL", "value": 130, "unit": "%"}, {"measurement": "expression of versican, result in words", "setting": "[4]", "value": "increase expression"}]}
{"compound": "O=C(O)c1cc(O)c2c(c1)C(=O)c1cccc(O)c1C2=O", "note": "[Rhein]", "values": [{"measurement": "Expression of Genes (%): DKK-1", "setting": "[1]; 10 μg/mL", "value": 76, "unit": "%"}, {"measurement": "expression of DKK-1, result in words", "setting": "[1]", "value": "reduce expression of DKK-1"}, {"measurement": "Expression of Genes (%): VEGF", "setting": "[2]; 10 μg/mL", "value": 144, "unit": "%"}, {"measurement": "expression of VEGF, result in words", "setting": "[2]", "value": "increase expression of VEGF"}, {"measurement": "Dermal Papilla Cell Proliferation Ability (%)", "setting": "[3]; 10 μg/mL", "value": 152.7, "unit": "%"}, {"measurement": "proliferation of dermal papilla cells, result in words", "setting": "[3]", "value": "excellent effect of accelerating proliferation of dermal papilla cells"}, {"measurement": "Expression of Genes (%): Versican", "setting": "[4]; 10 μg/mL", "value": 154, "unit": "%"}, {"measurement": "expression of versican, result in words", "setting": "[4]", "value": "increase expression"}]}
{"compound": "Escin", "values": [{"measurement": "amount of β-catenin in dermal papilla cells, result in words", "setting": "[5]", "value": "significant increase in amount of β-catenin"}, {"measurement": "Wnt/β-catenin signal effect compared to the positive control wnt3a protein", "setting": "[6]", "value": "higher effect as compared to the positive control"}, {"measurement": "amplification of Wnt/β-catenin signals as compared to the non-treated negative control", "setting": "[6]; no concentration dependence, clear effect at about 20 μg/mL", "value": "approximately 11 times"}, {"measurement": "Dermal Papilla Cell Proliferation Ability (%)", "setting": "[7]; 0.2 μg/mL", "value": 168.8, "unit": "%"}, {"measurement": "Dermal Papilla Cell Proliferation Ability (%)", "setting": "[7]; 0.5 μg/mL", "value": 198.7, "unit": "%"}, {"measurement": "Dermal Papilla Cell Proliferation Ability (%)", "setting": "[7]; 1 μg/mL", "value": 194.4, "unit": "%"}, {"measurement": "Dermal Papilla Cell Proliferation Ability (%)", "setting": "[7]; 2 μg/mL", "value": 204.8, "unit": "%"}, {"measurement": "Dermal Papilla Cell Proliferation Ability (%)", "setting": "[7]; 5 μg/mL", "value": 208.3, "unit": "%"}, {"measurement": "DPC proliferation, result in words", "setting": "[7]; escin 0.2-5 μg/mL", "value": "shows an effect of DPC proliferation"}]}
